Read-outs that look alike come from different tables or passages of the source.
Tests used:
[1] = tested on: P. falciparum strain F32-ART (artemisinin-resistant); assay: microbe, parasite or virus in culture; assay type: cell-based, Plasmodium falciparum; details: for Selectivity Index CC50/IC50: cytotoxicity (Vero cells)/antiplasmodial activity (F32-ART) ratio
Excerpt: The antimalarial activity of peptide-alkoxyamine hybrids was first evaluated in the in vitro antiproliferative test (IC50) using the artemisinin-resistant strain F32-ART (Table 2, Table S1). The roles of the N-substitution of the alkoxyamine moiety (TEMPO- or DBNO-based, for example, A3L/A8L, line 1/line 10), of the configuration (L or D of the peptide, A3L/A3D, line 1/line 2), of the N-protection of the peptide (A3L/A4L or A5L, line 1/ lines 3 and 5) were examined. According to standard rules in the malaria field, only molecules having IC50 values below 1 μM were considered active.
The F32-ART (artemisinin-resistant) strain and the F32-TEM (artemisinin-sensitive strain) were cultured according to Trager and Jensen in RPMI 1640 medium (Fisher Scientific, Illkirch, France) supplemented with 5% human serum (Etablissement français du Sang, Toulouse, France) at 2% hematocrit with type O human blood (Etablissement français du Sang, Toulouse, France), 37 °C, and 5% CO2 in a humidified atmosphere.
(§1) IC50 values corresponding to 50% inhibition of P. falciparum growth were determined by SYBR Green assay, and the assessment of cytotoxicity was performed on Vero cells (cell line from the kidney of a normal adult African green monkey), as previously published. The selectivity index corresponded to the cytotoxicity/activity ratio.

[2] = tested on: F32-ART parasites at the quiescent stage; assay: Quiescent-stage Survival Assay (QSA); assay type: cell-based, Plasmodium falciparum; details: for activity against quiescent parasites in the QSA: 700 nM DHA 6 h/(DHA + molecule 7 µM) 48 h
Description: In this assay, parasites were exposed to dihydroartemisinin (DHA) alone to induce quiescence, prior the addition of the drug to be tested for 48 h, and then the parasite recrudescence was monitored over a maximum of 4 weeks. Activity against quiescent parasites was evidenced by a delay in recrudescence time over 6 days between the conditions “DHA 6 h / DHA 48 h” and “DHA 6 h/(DHA + molecule) 48 h”. Atovaquone was used as a positive control, and its activity against quiescent parasites was here confirmed, as expected, by an extended delay of 11 days in recrudescence time (Figure 5). By contrast, no activity of A8L and A3L against quiescent parasites was evidenced in the QSA, with similar recrudescence time between the conditions “DHA 6 h/DHA 48 h” and “DHA 6 h/(DHA + molecule) 48 h”. […] To understand this phenomenon, we explored the parasite response during treatment with these hybrid compounds.
The QSA was performed according to Reyser et al.. Briefly, ART-resistant ring-stage parasites at 3% parasitemia were exposed for 6 h to 700 nM of DHA (dihydroartemisinin) to induce quiescence or were exposed to no drugs (control condition). After that, the compound to be tested was added in both conditions […]. At the end of the treatment, the drugs were washed off with RPMI-1640, and parasites were replaced in drug-free conditions. Blood smears were performed to follow parasitemia until the day the cultures reached their starting parasitemia, defined as the recrudescence day. If after 30 days no parasite recrudescence was observed, then the data were censored. Data analysis was performed using Kaplan–Meier survival curves. Statistical significance was ascertained by using a log-rank (Mantel-Cox) test using GraphPad Prism 7 software (San Diego, CA, USA).

Vero cells [3] = details: cited from earlier work
F32-ART parasites = assay: Parasitemia monitoring and parasite morphology upon drug exposure, F32-ART ring-stage parasites; assay type: cell-based, Plasmodium falciparum; details: 48 h exposure
Description: (§2) The effect of hybrid compounds against Plasmodium parasites was assessed by the microscopic examination of parasite morphology upon drug exposure. For this purpose, parasites were synchronized at 0–4 h age by percoll-sorbitol treatment, 0–24 h age by sorbitol treatment, or at schizont stage by percoll treatment at the start of the experiment. Different treatment schedules were tested. In the case of multiple doses, parasite cultures were washed before each new drug addition.

Vero cells [4] = assay: in vitro; assay type: cell-based, African green monkey; details: African green monkey
Description: as §1

in vitro = assay type: cell-based, African green monkey; details: African green monkey, Cytotoxicity CC50
Description: as §1

S. mansoni = tested on: S. mansoni; set-up: method as in doi:10.1021/cr00014a008; details: 100 μg/mL, in 2 h, in vitro ref 22; cited from earlier work
Solubility in water = assay type: physicochemical
PLM I = PLM I (Plasmodium falciparum, UniProt P39898); assay: Enzymatic activation monitored by EPR, PLM I; assay type: biochemical
chymotrypsin = biological target: T1, chymotrypsin (Bos taurus, UniProt P00766); assay: Enzymatic activation and homolysis monitored by EPR, chymotrypsin; assay type: biochemical; details: 37 °C
T1 construct: purchased Worthington
Description: Due to the low solubility of A3L/D–A5L/D in water, suitable concentrations (ca. 0.1 mM) for EPR detection could not be reached. Thus, A7L was prepared, which afforded a carboxylate function at a physiological pH. […] As other PLMs were not available, chymotrypsin, a pancreatic protease that accepts substrates with Phe in the P1 position, was used to hydrolyse A7L. The release of the free alkoxyamine, which decomposed spontaneously and rapidly into alkyl radical R3• and nitroxide R1R2NO•, and the concentration in nitroxide was monitored with EPR (Figure 3).
Kinetics were performed in HEPES 50 mM buffer containing […] at 37 °C. Then, 2.5 mM of hemin (Santa Cruz biotechnology, Heidelberg, Germany) was added to scavenge the alkyl radicals. In one, kinetic Chymotrypsin (Worthington, OH, USA) was added. Activation and homolysis were monitored by reading the concentrations of released TEMPO using, versus time, a calibrated EPR spectrometer (EMX Nano, Bruker, Wissembourg, France).

[5] = Kinetic analysis of alkoxyamine bond homolysis by EPR; assay type: physicochemical; details: Equation (2), A = 2.4 · 10^14 s^−1
Description: The kinetic homolysis for peptide-alkoxyamines reported in Table 1 was recorded in EPR using two solvents, tert-butylbenzene (t-BuPh) or an n-propanol:water (1:1, v:v) mixture. The growth of nitroxide was recorded in the presence of an alkyl radical scavenger, i.e., O2 here, to suppress the back reaction (kc in Scheme 4), as already reported.
Homolysis rate constants kd are given by Equation (1) ([nitroxide]∞ = [alkoxyamine]0 = 0.1 mM), and the subsequent activation energy values Ea are given by Equation (2), as follows:(1) lnnitroxide∞−nitroxidet/nitroxide∞=−kd·t (2) Ea=−RTlnkd/A

[6] = tested on: F32-TEM parasites (artemisinin-sensitive); assay: Parasitemia monitoring with different treatment schedules, F32-TEM parasites; assay type: cell-based, Plasmodium falciparum
[7] = tested on: P. falciparum parasites at the schizont stage; assay: Efficacy on the re-invasion step, post-percoll schizonts treated 15 h; assay type: cell-based, Plasmodium falciparum
Description: We wondered if this activity was due to a specific effect of the drug toward the schizont stage and re-invasion step of the parasite life cycle. However, treatment of parasites at the schizont stage for 15 h with A8L had no effect on parasite viability or development (Figure 8), highlighting that the mechanism of action of A8L has yet to be identified.
as §2

[8] = Thermolysis of A8L in DMSO with or without hemin, LC-MS; assay type: physicochemical; details: 80 °C, 1 h
Description: Since a putative antimalarial mechanism of action of these hybrid drugs was the alkylation of heme within the parasite food vacuole, the reactivity of the hybrid having the lower IC50 value, namely A8L (Table 2), was evaluated in the presence (or absence) of heme. In the absence of any protease activity able to cleave the tripeptide fragment, the alkoxyamine C–O bond was stable at room temperature; thus, thermolysis was carried out in DMSO at 80 °C for 1 h under an air atmosphere to achieve a nearly complete reaction (88–90% of conversion of A8L). The reaction was monitored by LC-MS analysis, and products A–F were detected and quantified (Figure 4). […] Products B, C, and D, resulting from the capture of dioxygen by the alkyl radical, were the major ones, with yields of 30%, 13%, and 21%, respectively, with respect to the starting amount of A8L. B and C have already been detected as thermolysis products of uncoupled alkoxyamine.
In a test tube equipped with a magnetic stirrer, 20 μL of a stock solution of A8L (10 mM in DMSO) was added to 180 μL of DMSO. […] Retention times and detected m/z values (amu) were as follows: JP2310, 20.8 min, 758.5 (MH^+), 702.4 (fragment); A, 27.4 min, 615.4 (MH^+); B, 21.2 min, 629.3 (MH^+); C, 20.1 min, 631.4 (MH^+); D, 20.3 min, 647.3 (MH^+); F, 25.7 min, 613.3 (MH^+); hemin, 17.3 min, 616.2 (M^+).

[9] = Plasmodium falciparum, F32, read-out: Antiplasmodial Activity IC50, strain F32-ART, SYBR Green assay, mean ± SEM of 3 to 6 experiments
[10] = Plasmodium falciparum, F32, read-out: Antiplasmodial IC50, strain F32-ART
[11] = read-out: Antiplasmodial Activity IC50, strain F32-ART, SYBR Green assay, mean ± SEM of 3 to 6 experiments

Chain of PLM I (P39898 124-452): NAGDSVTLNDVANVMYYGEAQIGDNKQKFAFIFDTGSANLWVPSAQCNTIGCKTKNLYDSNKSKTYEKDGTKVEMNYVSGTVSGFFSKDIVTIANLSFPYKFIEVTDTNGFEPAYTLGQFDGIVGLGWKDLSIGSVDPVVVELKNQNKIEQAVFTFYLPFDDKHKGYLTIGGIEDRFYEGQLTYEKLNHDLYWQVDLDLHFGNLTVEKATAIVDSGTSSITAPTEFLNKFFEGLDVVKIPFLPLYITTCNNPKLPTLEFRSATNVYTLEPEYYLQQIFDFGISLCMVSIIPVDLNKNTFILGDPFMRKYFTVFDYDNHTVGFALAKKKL

CC(ON1C(C)(C)CCCC1(C)C)c1ccc(NC(=O)[C@H](Cc2ccccc2)NC(=O)[C@@H](NC(=O)[C@H](Cc2ccccc2)NC(=O)OC(C)(C)C)C(C)C)cc1 (stereo partly drawn) [A3L, Boc-Phe-Val-Phe-anilide-TEMPO]
IC50 [1, 9]: 300 ± 40 nM
IC50 [1, 10]: 270 nM
Selectivity Index CC50/IC50 [1]: >165
activity against quiescent parasites in the QSA [2]: no activity
CC50 (Vero cells [3]): > 50 µM
effect on parasitemia and parasite cell cycle (F32-ART parasites): cytostatic-like effect

CC(ON1C(C)(C)CCCC1(C)C)c1ccc(NC(=O)[C@@H](Cc2ccccc2)NC(=O)[C@H](NC(=O)[C@H](N)Cc2ccccc2)C(C)C)cc1 (some centres unmarked) [A4D]
CC50 (Vero cells [4]): 2.6 ± 0.3 µM
CC50 (in vitro): 2200 to 2600 nM
IC50 [1, 9]: 2200 to 2600 nM
Selectivity Index CC50/IC50 [1]: 1.1
IC50 [1, 11]: 2300 ± 300 nM

CC(ON1C(C)(C)CCCC1(C)C)c1ccc(NC(=O)[C@H](Cc2ccccc2)NC(=O)[C@@H](NC(=O)[C@@H](N)Cc2ccccc2)C(C)C)cc1 (some centres unmarked) [A4L]
schistosomal population killed (S. mansoni): 50%
IC50 [1, 9]: > 50000 nM
CC50 (Vero cells [3]): > 50 µM

CC(ON1C(C)(C)CCCC1(C)C)c1ccc(NC(=O)[C@H](Cc2ccccc2)NC(=O)[C@@H](NC(=O)[C@@H](N)Cc2ccccc2)C(C)C)cc1 (some centres unmarked) [A5L]
schistosomal population killed (S. mansoni): 50%
IC50 [1, 11]: > 50000 nM
CC50 (Vero cells [3]): > 50 µM

CC(ON1C(C)(C)CCCC1(C)C)c1ccc(NC(=O)[C@H](Cc2ccccc2)NC(=O)[C@@H](NC(=O)[C@H](Cc2ccccc2)NC(=O)CCC(=O)O)C(C)C)cc1 (stereo partly drawn) [A7L, suc-Phe-Val-Phe-anilide-TEMPO]
IC50 [1, 9]: 5000 ± 3000 nM
Selectivity Index CC50/IC50 [1]: >10
pH above which soluble (Solubility in water): above 5.5
CC50 (Vero cells [3]): > 50 µM
EPR signal of TEMPO in the presence of PLM I (PLM I): no EPR signal of TEMPO could be observed
stability of the prodrug (chymotrypsin; absence of chymotrypsin): stable at 37 °C
activation by protease, release of nitroxide (EPR) (chymotrypsin; presence of chymotrypsin, HEPES buffer): activatable by chymotrypsin

CC(ON(C(C)(C)C)C(C)(C)C)c1ccc(NC(=O)[C@H](Cc2ccccc2)NC(=O)[C@@H](NC(=O)[C@H](Cc2ccccc2)NC(=O)OC(C)(C)C)C(C)C)cc1 (some centres unmarked) [A8L]
activation energy Ea ([5]; in t-BuPh): 120.9 kJ/mol
activation energy Ea ([5]; in water/n-PrOH 1/1 v/v): 120.9 kJ/mol
effect on parasite cell cycle ([6]; F32-TEM, 5 µM 48 h): cytostatic-like effect
effect of repeated exposure for at least three days ([6]; once or twice a day for three days): elimination of parasites in a dose-dependent manner
CC50 (in vitro): > 50000 nM
IC50 [1, 9]: 270 ± 40 nM
IC50 [1, 10]: 300 nM
Selectivity Index CC50/IC50 [1]: >185
activity against quiescent parasites in the QSA [2]: no activity
effect on parasite viability or development [7]: no effect
effect on parasitemia and parasite cell cycle (F32-ART parasites): cytostatic-like effect
conversion of A8L on thermolysis ([8]; A8L/hemin molar ratio 1/1): 88–89%
conversion of A8L on thermolysis ([8]; air, absence of hemin): 88–90%

CC(ON(C(C)(C)C)C(C)(C)C)c1ccc(NC(=O)[C@@H](Cc2ccccc2)NC(=O)[C@H](NC(=O)[C@H](N)Cc2ccccc2)C(C)C)cc1 (some centres unmarked) [AW231]
CC50 (Vero cells [4]): 6.6 ± 0.4 µM
IC50 [1, 11]: 4480 ± 290 nM

O=C1C(O)=C([C@H]2CC[C@H](c3ccc(Cl)cc3)CC2)C(=O)c2ccccc21 [Atovaquone, reference compound]
delay in recrudescence time between DHA 6 h/DHA 48 h and DHA 6 h/(DHA + molecule) 48 h ([2]; 700 nM DHA, compound at 7 µM): 11 days

C[C@H]1[C@@H](O)O[C@@H]2O[C@@]3(C)CC[C@H]4[C@H](C)CC[C@@H]1[C@@]24OO3 [DHA, dihydroartemisinin, reference compound]
effect on parasitemia and parasite cell cycle (F32-ART parasites): high parasitemia decrease
